Experimental data published in publication PMC10746543, “Design principles for cyclin K molecular glue degraders” (Nature Chemical Biology, 2023).
Where “and” joins values, the source holds several entries; their conditions need not be identical. Identical values can stand only once.

Molecular target: T1, CDK12–cyclin K and DDB1 (Homo sapiens, UniProt Q16531+Q9NYV4, K965R)
T1 construct: His6–CDK12 (a.a. 713–1,052); full-length or beta-propeller B domain deletion (ΔBPB: a.a. 396–705 deleted) constructs of His6–DDB1ΔBPB, StrepII–Avi–DDB1, or His6–Spy–DDB1; made in house; host or cells: Trichoplusia ni High Five insect cells (baculovirus)
T1 sequence (Q9NYV4 713-1052 K965R): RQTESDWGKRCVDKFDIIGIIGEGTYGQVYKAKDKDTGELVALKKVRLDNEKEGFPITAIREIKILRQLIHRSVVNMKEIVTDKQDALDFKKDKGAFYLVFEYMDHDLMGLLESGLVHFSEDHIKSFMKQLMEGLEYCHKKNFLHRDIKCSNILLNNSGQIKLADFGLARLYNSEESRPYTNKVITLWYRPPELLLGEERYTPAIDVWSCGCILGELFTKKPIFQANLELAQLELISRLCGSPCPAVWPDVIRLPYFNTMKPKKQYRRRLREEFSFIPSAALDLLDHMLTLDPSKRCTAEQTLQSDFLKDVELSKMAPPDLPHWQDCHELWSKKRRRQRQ
T1 sequence (O75909 1-267 partner): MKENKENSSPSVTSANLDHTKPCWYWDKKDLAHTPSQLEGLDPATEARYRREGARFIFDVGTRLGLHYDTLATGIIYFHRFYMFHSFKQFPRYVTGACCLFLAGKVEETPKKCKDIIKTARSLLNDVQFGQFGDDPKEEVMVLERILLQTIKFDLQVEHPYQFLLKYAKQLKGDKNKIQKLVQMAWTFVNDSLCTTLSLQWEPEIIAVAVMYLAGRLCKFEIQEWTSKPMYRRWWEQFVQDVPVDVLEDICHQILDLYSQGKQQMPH
T1 sequence (Q16531 whole entry): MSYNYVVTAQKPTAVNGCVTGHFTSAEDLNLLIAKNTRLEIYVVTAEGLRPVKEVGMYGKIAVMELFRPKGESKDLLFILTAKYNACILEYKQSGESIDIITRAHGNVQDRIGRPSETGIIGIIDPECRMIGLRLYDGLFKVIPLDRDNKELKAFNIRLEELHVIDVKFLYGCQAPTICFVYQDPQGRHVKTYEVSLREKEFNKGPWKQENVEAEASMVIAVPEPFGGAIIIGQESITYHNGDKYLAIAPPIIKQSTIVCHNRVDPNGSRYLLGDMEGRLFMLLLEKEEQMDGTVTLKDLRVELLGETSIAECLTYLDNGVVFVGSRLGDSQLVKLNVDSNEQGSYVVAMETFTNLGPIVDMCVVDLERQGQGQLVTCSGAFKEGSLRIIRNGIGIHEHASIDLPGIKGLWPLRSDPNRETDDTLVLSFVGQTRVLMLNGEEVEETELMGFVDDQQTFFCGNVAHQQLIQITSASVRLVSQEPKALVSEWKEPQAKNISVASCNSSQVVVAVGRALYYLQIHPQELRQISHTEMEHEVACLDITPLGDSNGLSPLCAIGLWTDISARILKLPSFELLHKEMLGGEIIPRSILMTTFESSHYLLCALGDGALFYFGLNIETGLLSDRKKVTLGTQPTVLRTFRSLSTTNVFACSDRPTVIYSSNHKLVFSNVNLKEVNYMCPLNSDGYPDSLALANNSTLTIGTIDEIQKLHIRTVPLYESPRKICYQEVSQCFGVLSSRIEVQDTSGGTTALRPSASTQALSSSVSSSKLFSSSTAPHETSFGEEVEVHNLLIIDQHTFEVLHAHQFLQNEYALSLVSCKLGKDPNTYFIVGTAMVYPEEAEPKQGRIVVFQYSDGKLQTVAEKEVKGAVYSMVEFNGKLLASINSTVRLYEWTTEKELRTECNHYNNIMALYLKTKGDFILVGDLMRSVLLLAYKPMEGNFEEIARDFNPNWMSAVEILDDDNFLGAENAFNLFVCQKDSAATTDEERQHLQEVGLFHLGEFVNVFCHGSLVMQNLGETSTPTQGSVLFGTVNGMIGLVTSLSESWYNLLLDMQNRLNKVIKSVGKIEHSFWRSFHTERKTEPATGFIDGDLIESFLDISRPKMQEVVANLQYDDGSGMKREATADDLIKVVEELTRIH
Assay: TR-FRET ternary complex formation assay (compound titration)
Type: binding
Conditions: for TR-FRET signal at compound concentration: replicate titrations
Summary of the method: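 TR-FRET ratio 520/490 nm; 70 μs delay before read to suppress background.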

[1] = compound concentration 0.468 nM
[2] = compound concentration 7.92001 nM
[3] = compound concentration 15.84 nM
[4] = compound concentration 30.96 nM
[5] = compound concentration 62.6401 nM
[6] = compound concentration 125.28 nM

Question: How did the “TR-FRET signal, individual replicate” value [1] turn out when `CCC(CO)Nc1nc(NCc2ccc(-c3ccccn3)cc2)c2ncn(C(C)C)c2n1` (stereo not drawn) [CR8, reference compound] was run?
Answer: The value was 0.3192 and 0.333 and 0.3266 and 0.1622 and 0.1822 and 0.1545 and 0.1541.

Question: What about the “TR-FRET signal at compound concentration 0.468 nM” value (compound concentration 0.468 nM, raw replicate titration data) of the same compound?
Answer: The value was 0.3192 and 0.333 and 0.3266 and 0.1622 and 0.1822 and 0.1545 and 0.1541 and 0.2195 and 0.2132 and 0.1986 and 0.2005 and 0.1618 and 0.1794 and 0.2366 and 0.2374 and 0.2769 and 0.2739 and 0.31.

Question: And the “TR-FRET signal at compound concentration 0.468 nM” value (compound concentration 0.468 nM, raw titration data)?
Answer: The value was 0.3192 and 0.333 and 0.3266 and 0.1622 and 0.1822 and 0.1545 and 0.1541 and 0.2195 and 0.2132 and 0.1986 and 0.2005 and 0.1618 and 0.1794 and 0.2366 and 0.2374 and 0.2769 and 0.2739 and 0.31.

Question: What about the “TR-FRET signal at compound concentration” value [1] of the same compound?
Answer: The value was 0.3192 and 0.333 and 0.3266 and 0.1622 and 0.1822 and 0.1545 and 0.1541.

Question: And the “TR-FRET signal, individual replicate” value (compound concentration 2.16 nM)?
Answer: The value was 0.4573 and 0.4311 and 0.4305 and 0.2659 and 0.27 and 0.2373 and 0.2241.

Question: And the “TR-FRET signal at compound concentration 2.16 nM” value (compound concentration 2.16 nM, raw replicate titration data)?
Answer: Its value is 0.4573 and 0.4311 and 0.4305 and 0.2659 and 0.27 and 0.2373 and 0.2241 and 0.3119 and 0.3007 and 0.2892 and 0.2693 and 0.2407 and 0.2691 and 0.3343 and 0.3434 and 0.3949 and 0.3941 and 0.4244.

Question: What about the “TR-FRET signal at compound concentration 2.16 nM” value (compound concentration 2.16 nM, raw titration data) of the same compound?
Answer: Its value is 0.4573 and 0.4311 and 0.4305 and 0.2659 and 0.27 and 0.2373 and 0.2241 and 0.3119 and 0.3007 and 0.2892 and 0.2693 and 0.2407 and 0.2691 and 0.3343 and 0.3434 and 0.3949 and 0.3941 and 0.4244.

Question: And the “TR-FRET signal at compound concentration” value (compound concentration 2.16 nM)?
Answer: The value was 0.4573 and 0.4311 and 0.4305 and 0.2659 and 0.27 and 0.2373 and 0.2241.

Question: And the “TR-FRET signal, individual replicate” value (compound concentration 3.6 nM)?
Answer: The value was 0.7291 and 0.6022 and 0.6555 and 0.4637 and 0.4981 and 0.4299 and 0.4143 and 0.532.

Question: And the “TR-FRET signal at compound concentration 3.6 nM” value (compound concentration 3.6 nM, raw replicate titration data)?
Answer: Its value is 0.7291 and 0.6022 and 0.6555 and 0.4637 and 0.4981 and 0.4299 and 0.4143 and 0.532 and 0.5274 and 0.5046 and 0.4937 and 0.4479 and 0.5082 and 0.5733 and 0.5902 and 0.6794 and 0.6674 and 0.7173.

Question: And the “TR-FRET signal at compound concentration 3.6 nM” value (compound concentration 3.6 nM, raw titration data)?
Answer: The value was 0.7291 and 0.6022 and 0.6555 and 0.4637 and 0.4981 and 0.4299 and 0.4143 and 0.532 and 0.5274 and 0.5046 and 0.4937 and 0.4479 and 0.5082 and 0.5733 and 0.5902 and 0.6794 and 0.6674 and 0.7173.

Question: What about the “TR-FRET signal at compound concentration” value (compound concentration 3.6 nM) of the same compound?
Answer: Its value is 0.7291 and 0.6022 and 0.6555 and 0.4637 and 0.4981 and 0.4299 and 0.4143 and 0.532.

Question: And the “TR-FRET signal, individual replicate” value [2]?
Answer: The value was 1.345 and 0.9894 and 0.9813 and 0.8825 and 0.9549 and 0.8747 and 0.8749 and 0.9605.

Question: And the “TR-FRET signal at compound concentration 7.92001 nM” value (compound concentration 7.92001 nM, raw replicate titration data)?
Answer: Its value is 1.345 and 0.9894 and 0.9813 and 0.8825 and 0.9549 and 0.8747 and 0.8749 and 0.9605 and 0.982 and 0.9498 and 0.9487 and 0.89 and 1.021 and 1.066 and 1.149 and 1.341 and 1.311 and 1.1731.

Question: And the “TR-FRET signal at compound concentration 7.92001 nM” value (compound concentration 7.92001 nM, raw titration data)?
Answer: The value was 1.345 and 0.9894 and 0.9813 and 0.8825 and 0.9549 and 0.8747 and 0.8749 and 0.9605 and 0.982 and 0.9498 and 0.9487 and 0.89 and 1.021 and 1.066 and 1.149 and 1.341 and 1.311 and 1.1731.

Question: And the “TR-FRET signal at compound concentration” value [2]?
Answer: Its value is 1.345 and 0.9894 and 0.9813 and 0.8825 and 0.9549 and 0.8747 and 0.8749 and 0.9605.

Question: And the “TR-FRET signal, individual replicate” value [3]?
Answer: The value was 2.359 and 1.808 and 1.67 and 1.71 and 1.978 and 1.839 and 1.833 and 1.762.

Question: What about the “TR-FRET signal at compound concentration 15.84 nM” value (compound concentration 15.84 nM, raw replicate titration data) of the same compound?
Answer: Its value is 2.359 and 1.808 and 1.67 and 1.71 and 1.978 and 1.839 and 1.833 and 1.762 and 1.792 and 1.805 and 1.852 and 1.758 and 1.925 and 1.999 and 2.166 and 2.456 and 2.406 and 2.268.

Question: What about the “TR-FRET signal at compound concentration 15.84 nM” value (compound concentration 15.84 nM, raw titration data) of the same compound?
Answer: Its value is 2.359 and 1.808 and 1.67 and 1.71 and 1.978 and 1.839 and 1.833 and 1.762 and 1.792 and 1.805 and 1.852 and 1.758 and 1.925 and 1.999 and 2.166 and 2.456 and 2.406 and 2.268.

Question: What about the “TR-FRET signal at compound concentration” value [3] of the same compound?
Answer: The value was 2.359 and 1.808 and 1.67 and 1.71 and 1.978 and 1.839 and 1.833 and 1.762.

Question: And the “TR-FRET signal, individual replicate” value [4]?
Answer: The value was 3.429 and 2.93 and 2.851 and 3.1006 and 3.279 and 3.156 and 3.142 and 2.862.

Question: What about the “TR-FRET signal at compound concentration 30.96 nM” value (compound concentration 30.96 nM, raw replicate titration data) of the same compound?
Answer: Its value is 3.429 and 2.93 and 2.851 and 3.1006 and 3.279 and 3.156 and 3.142 and 2.862 and 2.958 and 2.99 and 2.943 and 2.896 and 3.197 and 3.095 and 3.319 and 3.517 and 3.418 and 3.349.

Question: And the “TR-FRET signal at compound concentration 30.96 nM” value (compound concentration 30.96 nM, raw titration data)?
Answer: Its value is 3.429 and 2.93 and 2.851 and 3.1006 and 3.279 and 3.156 and 3.142 and 2.862 and 2.958 and 2.99 and 2.943 and 2.896 and 3.197 and 3.095 and 3.319 and 3.517 and 3.418 and 3.349.

Question: And the “TR-FRET signal at compound concentration” value [4]?
Answer: The value was 3.429 and 2.93 and 2.851 and 3.1006 and 3.279 and 3.156 and 3.142 and 2.862.

Question: And the “TR-FRET signal, individual replicate” value [5]?
Answer: Its value is 3.992 and 3.667 and 3.67 (2×) and 3.796 and 3.836 and 3.683 and 3.652.

Question: And the “TR-FRET signal at compound concentration 62.6401 nM” value (compound concentration 62.6401 nM, raw replicate titration data)?
Answer: The value was 3.992 and 3.667 and 3.67 (2×) and 3.796 and 3.836 and 3.683 and 3.652 and 3.6831 and 3.54 and 3.542 and 3.62 and 3.792 and 3.69 and 3.855 and 3.914 and 3.849 and 3.7896.

Question: What about the “TR-FRET signal at compound concentration 62.6401 nM” value (compound concentration 62.6401 nM, raw titration data) of the same compound?
Answer: Its value is 3.992 and 3.667 and 3.67 (2×) and 3.796 and 3.836 and 3.683 and 3.652 and 3.6831 and 3.54 and 3.542 and 3.62 and 3.792 and 3.69 and 3.855 and 3.914 and 3.849 and 3.7896.

Question: And the “TR-FRET signal at compound concentration” value [5]?
Answer: The value was 3.992 and 3.667 and 3.67 (2×) and 3.796 and 3.836 and 3.683 and 3.652.

Question: What about the “TR-FRET signal, individual replicate” value [6] of the same compound?
Answer: Its value is 4.095 and 3.873 and 3.877 and 4.034 and 3.962 and 3.842 and 3.836 and 3.935.

Question: And the “TR-FRET signal at compound concentration 125.28 nM” value (compound concentration 125.28 nM, raw replicate titration data)?
Answer: Its value is 4.095 and 3.873 and 3.877 and 4.034 and 3.962 and 3.842 and 3.836 and 3.935 and 3.986 and 3.722 and 3.719 and 3.7404 and 3.636 and 3.869 and 4.026 and 4.013 and 4.003 and 3.8874.

Question: And the “TR-FRET signal at compound concentration 125.28 nM” value (compound concentration 125.28 nM, raw titration data)?
Answer: Its value is 4.095 and 3.873 and 3.877 and 4.034 and 3.962 and 3.842 and 3.836 and 3.935 and 3.986 and 3.722 and 3.719 and 3.7404 and 3.636 and 3.869 and 4.026 and 4.013 and 4.003 and 3.8874.

Question: What about the “TR-FRET signal at compound concentration” value [6] of the same compound?
Answer: The value was 4.095 and 3.873 and 3.877 and 4.034 and 3.962 and 3.842 and 3.836 and 3.935.

Question: What about the “TR-FRET signal, individual replicate” value (compound concentration 244.8 nM) of the same compound?
Answer: Its value is 4.223 and 4.06 and 4.046 and 4.132 and 4.096 and 3.922 and 3.897 and 4.118.
